Source: PMC11233931, “Remodeling tumor‐associated macrophage for anti‐cancer effects by rational design of irreversible inhibition of mitogen‐activated protein kinase‐activated protein kinase 2” (MedComm, 2024)

What was measured:
Assay in all cases: Eurofins kinase selectivity profile against 380 other human recombinant kinases (Table S2)
Format in all cases: biochemical
[1] = target: T1, 380 human recombinant protein kinases (Homo sapiens, UniProt Q13557); details: CaMKIIδ(h), read-out: Inhibition rate
T1 construct: purchased Eurofins (Celle Lévescault)
Summary of the method: (§1)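 Values come from a contract kinase-profiling service that tested the compound at multiple concentrations across 380 recombinant human kinases, as an off-target check against the MK2 activity.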

[2] = target: T2, 380 human recombinant protein kinases (Homo sapiens, UniProt Q9UKI8); details: TLK1(h), read-out: Inhibition rate (%)
T2 construct: purchased Eurofins (Celle Lévescault)
T2 sequence (Q9UKI8 1-766): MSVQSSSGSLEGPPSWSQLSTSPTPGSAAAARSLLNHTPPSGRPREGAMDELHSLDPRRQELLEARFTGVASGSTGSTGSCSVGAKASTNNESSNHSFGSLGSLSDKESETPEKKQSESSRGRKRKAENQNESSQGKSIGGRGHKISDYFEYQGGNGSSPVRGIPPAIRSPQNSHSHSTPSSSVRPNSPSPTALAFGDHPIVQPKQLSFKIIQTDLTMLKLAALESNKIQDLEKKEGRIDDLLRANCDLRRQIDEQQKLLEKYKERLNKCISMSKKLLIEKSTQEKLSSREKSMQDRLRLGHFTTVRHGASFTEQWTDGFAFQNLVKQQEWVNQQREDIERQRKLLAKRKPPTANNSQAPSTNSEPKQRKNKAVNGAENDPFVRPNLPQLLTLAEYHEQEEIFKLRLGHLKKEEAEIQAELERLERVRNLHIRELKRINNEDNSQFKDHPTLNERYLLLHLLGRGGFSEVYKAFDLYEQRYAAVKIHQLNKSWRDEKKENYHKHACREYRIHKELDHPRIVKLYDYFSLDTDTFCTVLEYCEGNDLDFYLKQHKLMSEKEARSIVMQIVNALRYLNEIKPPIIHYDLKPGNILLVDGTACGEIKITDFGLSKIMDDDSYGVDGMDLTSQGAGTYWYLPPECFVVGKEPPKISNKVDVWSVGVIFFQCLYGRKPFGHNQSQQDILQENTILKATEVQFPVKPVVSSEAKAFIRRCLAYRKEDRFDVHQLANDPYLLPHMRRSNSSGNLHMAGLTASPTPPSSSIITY
Summary of the method: as §1

[3] = target: T3, 380 human recombinant protein kinases (Homo sapiens, UniProt Q6SA08); details: TSSK4(h), read-out: Inhibition rate (%)
T3 construct: purchased Eurofins (Celle Lévescault)
T3 sequence (Q6SA08 1-328): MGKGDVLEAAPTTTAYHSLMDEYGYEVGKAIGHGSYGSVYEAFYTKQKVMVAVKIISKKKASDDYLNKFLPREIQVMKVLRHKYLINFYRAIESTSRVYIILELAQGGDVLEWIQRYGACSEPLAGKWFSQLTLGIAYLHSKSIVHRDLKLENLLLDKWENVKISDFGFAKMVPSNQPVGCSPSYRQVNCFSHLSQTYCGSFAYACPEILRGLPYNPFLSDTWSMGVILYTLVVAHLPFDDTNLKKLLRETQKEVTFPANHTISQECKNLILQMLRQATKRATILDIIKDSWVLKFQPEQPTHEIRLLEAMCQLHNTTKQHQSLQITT
Summary of the method: as §1

[4] = target: T4, 380 human recombinant protein kinases (Homo sapiens, UniProt P54762); details: EphB1(h), read-out: Inhibition rate
T4 construct: purchased Eurofins (Celle Lévescault)
T4 sequence (P54762 18-984): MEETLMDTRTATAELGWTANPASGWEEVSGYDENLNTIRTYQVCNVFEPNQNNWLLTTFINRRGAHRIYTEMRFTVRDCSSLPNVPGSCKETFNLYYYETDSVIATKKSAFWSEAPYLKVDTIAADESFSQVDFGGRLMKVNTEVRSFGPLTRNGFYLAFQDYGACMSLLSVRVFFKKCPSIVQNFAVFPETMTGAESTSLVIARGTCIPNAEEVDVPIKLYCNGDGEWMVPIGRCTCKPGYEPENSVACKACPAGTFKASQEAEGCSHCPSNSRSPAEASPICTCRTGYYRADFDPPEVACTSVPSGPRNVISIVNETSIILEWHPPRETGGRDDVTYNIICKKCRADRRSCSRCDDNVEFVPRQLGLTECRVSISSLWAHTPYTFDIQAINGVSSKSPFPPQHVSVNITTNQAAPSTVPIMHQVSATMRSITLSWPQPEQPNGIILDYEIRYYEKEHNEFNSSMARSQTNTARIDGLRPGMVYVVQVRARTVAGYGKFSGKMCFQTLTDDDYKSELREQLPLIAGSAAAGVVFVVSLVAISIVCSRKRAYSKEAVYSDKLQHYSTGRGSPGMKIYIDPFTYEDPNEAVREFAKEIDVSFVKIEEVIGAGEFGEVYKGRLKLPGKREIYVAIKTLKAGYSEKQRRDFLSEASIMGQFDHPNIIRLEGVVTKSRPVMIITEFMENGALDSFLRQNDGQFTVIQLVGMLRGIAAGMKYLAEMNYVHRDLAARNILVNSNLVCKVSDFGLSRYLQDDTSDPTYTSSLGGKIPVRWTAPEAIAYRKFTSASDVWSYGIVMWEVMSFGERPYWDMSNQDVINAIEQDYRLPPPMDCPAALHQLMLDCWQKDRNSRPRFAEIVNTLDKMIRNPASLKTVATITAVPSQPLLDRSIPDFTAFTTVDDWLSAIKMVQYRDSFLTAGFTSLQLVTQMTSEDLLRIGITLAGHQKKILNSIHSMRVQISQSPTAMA
Summary of the method: as §1

[5] = target: T5, 380 human recombinant protein kinases (Homo sapiens, UniProt Q00532); details: CDKL1(h), read-out: Inhibition rate
T5 construct: purchased Eurofins (Celle Lévescault)
Summary of the method: as §1

[6] = target: T6, 380 human recombinant protein kinases (Homo sapiens, UniProt O43353); details: RIPK2(h), read-out: Inhibition rate
T6 construct: purchased Eurofins (Celle Lévescault)
Summary of the method: as §1

[7] = target: T7, 380 human recombinant protein kinases (Homo sapiens, UniProt P35916); details: Flt4(h), read-out: Inhibition rate
T7 construct: purchased Eurofins (Celle Lévescault)
Summary of the method: as §1

T7 sequence (P35916 25-1363): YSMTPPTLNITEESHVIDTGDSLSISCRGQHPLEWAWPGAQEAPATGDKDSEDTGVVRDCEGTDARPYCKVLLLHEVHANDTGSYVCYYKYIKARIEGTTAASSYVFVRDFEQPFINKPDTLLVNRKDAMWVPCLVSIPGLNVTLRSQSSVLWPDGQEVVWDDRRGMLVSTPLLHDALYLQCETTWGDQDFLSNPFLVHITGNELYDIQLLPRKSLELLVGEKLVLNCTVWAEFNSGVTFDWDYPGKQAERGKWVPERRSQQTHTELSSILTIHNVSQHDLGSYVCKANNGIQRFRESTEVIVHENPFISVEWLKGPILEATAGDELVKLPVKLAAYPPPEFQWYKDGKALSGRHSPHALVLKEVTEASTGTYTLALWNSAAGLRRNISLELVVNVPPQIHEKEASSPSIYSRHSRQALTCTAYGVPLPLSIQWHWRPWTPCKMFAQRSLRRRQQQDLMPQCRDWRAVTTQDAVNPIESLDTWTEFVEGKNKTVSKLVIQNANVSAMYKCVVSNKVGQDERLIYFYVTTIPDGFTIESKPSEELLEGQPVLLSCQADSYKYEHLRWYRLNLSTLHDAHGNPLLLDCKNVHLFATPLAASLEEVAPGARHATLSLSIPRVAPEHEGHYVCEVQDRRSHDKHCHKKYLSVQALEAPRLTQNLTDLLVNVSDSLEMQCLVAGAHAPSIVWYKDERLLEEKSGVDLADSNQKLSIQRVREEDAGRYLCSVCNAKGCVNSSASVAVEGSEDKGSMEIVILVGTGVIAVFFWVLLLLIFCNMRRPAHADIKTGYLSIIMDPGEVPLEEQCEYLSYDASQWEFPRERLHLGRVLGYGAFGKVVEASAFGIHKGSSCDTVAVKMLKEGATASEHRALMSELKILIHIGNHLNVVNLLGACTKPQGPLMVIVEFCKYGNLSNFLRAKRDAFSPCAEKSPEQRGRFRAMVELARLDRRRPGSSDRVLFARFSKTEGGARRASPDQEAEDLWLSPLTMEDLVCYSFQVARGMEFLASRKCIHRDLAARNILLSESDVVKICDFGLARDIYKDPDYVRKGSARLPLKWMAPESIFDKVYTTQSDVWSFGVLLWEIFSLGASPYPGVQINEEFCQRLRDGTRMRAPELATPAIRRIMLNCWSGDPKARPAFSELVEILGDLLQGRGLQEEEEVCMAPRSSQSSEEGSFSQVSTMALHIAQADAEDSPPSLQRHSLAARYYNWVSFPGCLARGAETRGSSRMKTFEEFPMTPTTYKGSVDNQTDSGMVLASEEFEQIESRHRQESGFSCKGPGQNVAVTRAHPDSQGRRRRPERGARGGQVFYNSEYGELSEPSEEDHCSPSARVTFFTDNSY
T1 sequence (Q13557 whole entry): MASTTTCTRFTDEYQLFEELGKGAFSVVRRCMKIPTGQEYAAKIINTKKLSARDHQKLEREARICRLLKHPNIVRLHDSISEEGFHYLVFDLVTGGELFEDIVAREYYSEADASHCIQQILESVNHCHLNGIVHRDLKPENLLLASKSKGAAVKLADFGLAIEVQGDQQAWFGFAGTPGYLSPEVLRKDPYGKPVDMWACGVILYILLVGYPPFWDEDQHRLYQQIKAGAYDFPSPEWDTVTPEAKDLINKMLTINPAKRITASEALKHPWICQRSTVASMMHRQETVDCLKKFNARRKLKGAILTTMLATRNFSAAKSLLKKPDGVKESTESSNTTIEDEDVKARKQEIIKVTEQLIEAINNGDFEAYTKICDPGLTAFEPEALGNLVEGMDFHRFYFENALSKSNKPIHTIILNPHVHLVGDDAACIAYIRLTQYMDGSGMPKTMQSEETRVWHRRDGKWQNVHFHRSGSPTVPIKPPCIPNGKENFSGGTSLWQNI
T5 sequence (Q00532 whole entry): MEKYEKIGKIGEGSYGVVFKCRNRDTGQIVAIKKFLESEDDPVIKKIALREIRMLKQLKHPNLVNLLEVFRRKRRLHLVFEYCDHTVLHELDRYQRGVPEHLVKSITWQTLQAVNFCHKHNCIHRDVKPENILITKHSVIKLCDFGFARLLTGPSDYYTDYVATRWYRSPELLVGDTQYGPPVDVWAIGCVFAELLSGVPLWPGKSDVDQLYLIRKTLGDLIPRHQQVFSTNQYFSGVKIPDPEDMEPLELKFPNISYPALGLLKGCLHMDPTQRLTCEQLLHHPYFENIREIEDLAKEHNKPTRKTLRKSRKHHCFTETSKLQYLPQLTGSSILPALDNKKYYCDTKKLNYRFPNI
T6 sequence (O43353 whole entry): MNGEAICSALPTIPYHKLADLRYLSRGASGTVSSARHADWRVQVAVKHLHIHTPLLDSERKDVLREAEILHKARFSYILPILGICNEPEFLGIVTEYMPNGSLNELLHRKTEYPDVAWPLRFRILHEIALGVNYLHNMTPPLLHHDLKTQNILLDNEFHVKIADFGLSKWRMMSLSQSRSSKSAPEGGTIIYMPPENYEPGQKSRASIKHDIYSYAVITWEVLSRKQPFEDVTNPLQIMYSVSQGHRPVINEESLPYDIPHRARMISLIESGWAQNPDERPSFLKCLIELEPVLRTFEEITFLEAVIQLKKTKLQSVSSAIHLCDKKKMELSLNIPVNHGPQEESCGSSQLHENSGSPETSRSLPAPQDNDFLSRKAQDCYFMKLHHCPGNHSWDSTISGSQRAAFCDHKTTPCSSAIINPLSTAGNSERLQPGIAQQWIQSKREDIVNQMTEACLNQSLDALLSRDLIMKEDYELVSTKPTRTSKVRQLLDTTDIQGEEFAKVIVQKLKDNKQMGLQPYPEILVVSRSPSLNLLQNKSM

Work on `C=CC(=O)Nc1cc(-c2cc(-c3cc4c([nH]3)CCNC4=O)ccn2)ccc1OC(F)(F)F` [compound 11] yielded an inhibition at 0.01 µM ([1]; 10 nM) of -7%, an inhibition at 0.1 µM ([1]; 100 nM) of 11% and an inhibition at 1 µM ([1]; 1000 nM) of 20%. It also gave an inhibition at 0.01 µM ([2]; 10 nM) of 13%, an inhibition at 0.1 µM ([2]; 100 nM) of 0% and an inhibition at 1 µM ([2]; 1000 nM) of -5%. For the same compound, the inhibition at 0.01 µM ([3]; 10 nM) was 3%, the inhibition at 0.1 µM ([3]; 100 nM) was 5% and the inhibition at 1 µM ([3]; 1000 nM) was 2%. It also gave an inhibition at 0.01 µM ([4]; 10 nM) of -17%, an inhibition at 0.1 µM ([4]; 100 nM) of -12% and an inhibition at 1 µM ([4]; 1000 nM) of 2%. The inhibition at 0.01 µM ([5]; 10 nM) was 26%, the inhibition at 0.1 µM ([5]; 100 nM) was 47% and the inhibition at 1 µM ([5]; 1000 nM) was 49%. It also gave an inhibition at 0.01 µM ([6]; 10 nM) of 11%, an inhibition at 0.1 µM ([6]; 100 nM) of 46% and an inhibition at 1 µM ([6]; 1000 nM) of 88%. For the same compound, the inhibition at 0.01 µM ([7]; 10 nM) was -8%, the inhibition at 0.1 µM ([7]; 100 nM) was 5% and the inhibition at 1 µM ([7]; 1000 nM) was 43%.
